Earlier results as cited in patent publication US8268905B1, “Compositions containing poly(lactic acid), bacteriocin(s), plasticizers(s), and optionally pore forming agent(s), and methods or making” (The United States of America, as represented by the …, priority 2008, dated 2012).

Conditions: background statement

nisin
maximal temperature at which nisin can retain its bioactivity: 120 °C
